Where two headings read alike, the source gives them in different places.
What was measured:
Assay type in all cases: cell-based, human
[1] = system: EPO-induced JAK2 signal pathway; assay: EPO-induced proliferation of UT-7 cells (JAK2 signal); conditions: Homo sapiens, UT7; UT-7 cell proliferation, EPO 10 ng/mL, 72 hours; read-out: Inhibition activity IC50 on EPO-induced JAK2 signal pathway
Procedure, shortened: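 […] was derived from inhibition rates across doses, scaled between wells lacking compound and cytokine (0) and EPO without compound (100), using alamarBlue fluorescence at Ex530/Em590. Compound (final 0-10000 nM) and 10 ng/mL EPO were given to UT-7 cells at 15000 per well for 72 h at 37° C.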

[2] = system: IL-2-induced JAK1/JAK3 signal pathway; assay: IL-2-induced proliferation of KHYG-1 cells (JAK1/JAK3 signal); conditions: Homo sapiens, read-out: Inhibition activity IC50 on IL-2-induced JAK1/JAK3 signal pathway
Procedure, shortened: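 Controls were wells lacking both compound and cytokine (0%) and compound-free IL-2 wells (100%). C50 was calculated from inhibition rates across doses.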

[3] = system: IL-10-induced JAK1/TYK2 signal pathway; assay: IL-10-induced JAK1/TYK2 signal pathway STAT3-Luc reporter gene assay in U2OS cells; conditions: Homo sapiens, U2OS cells, STAT3-Luc reporter, IL-10 10 ng/mL, read-out: Half inhibition dose (IC50) on IL-10-induced JAK1/TYK2 signal pathway
Procedure, shortened: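 Luciferase read-out (560 nm) corrected by GFP signal (Ex485/Em520) gives IL-10 pathway activity, and IC50 is derived from inhibition rates. Cells were U2OS transfected with IL-10R1 plus STAT3-Luc reporter, pretreated 6 h with 0.1–300 nM compound, then stimulated 24 h with IL-10 at 10 ng/mL.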

[4] = KHYG-1 cell proliferation, IL-2 10 ng/mL, 72 hours

| SMILES | IC50 ([3]; U2OS) [µM] | IC50 [1] [µM] | IC50 [2, 4] [µM] | IC50 ([2]; KHYG-1, 72 h) [µM] | IC50 [3] [µM] |
| --- | --- | --- | --- | --- | --- |
| CCONC(=O)c1cnc(Nc2cccnn2)cc1Nc1ccc(Cl)cc1N(C)S(C)(=O)=O [Example 151, 4-((4-chloro-2-(N-methylmethanesulfonamido)phenyl)amino)-N-ethoxy-6-(pyridazin-3-ylamino)nicotinamide] | 0.00207 | > 10 | > 10 |  |  |
| C#Cc1ccc(Nc2cc(Nc3ccc(C4CC4)cn3)ncc2C(=O)NOCC)c(N(C)S(C)(=O)=O)c1 [Example 154, 6-((5-cyclopropylpyridin-2-yl)amino)-N-ethoxy-4-((4-ethynyl-2-(N-methylmethanesulfonamido)phenyl)amino)nicotinamide] | 0.00152 | > 10 | > 10 |  |  |
| CCONC(=O)c1cnc(Nc2ccc(C3CC3)cn2)cc1Nc1ccc(OC)cc1N(C)S(C)(=O)=O [Example 155, 6-((5-cyclopropylpyridin-2-yl)amino)-N-ethoxy-4-((4-methoxy-2-(N-methylmethanesulfonamido)phenyl)amino)nicotinamide] | 0.00179 | > 10 | > 10 |  |  |
| CCONC(=O)c1cnc(Nc2ccn(C)n2)cc1Nc1cc(F)c(C2CC2)cc1N(C)S(C)(=O)=O [Example 171, 4-((4-cyclopropyl-5-fluoro-2-(N-methylmethanesulfonamido)phenyl)amino)-N-ethoxy-6-((1-methyl-1H-pyrazol-3-yl)amino)nicotinamide] | 0.00154 | > 10 | > 10 |  |  |
| CCONC(=O)c1cnc(Nc2cc(C)nc(C)n2)cc1Nc1ccccc1N(C)S(=O)(=O)C1CC1 [Example 173, 6-((2,6-dimethylpyrimidin-4-yl)amino)-N-ethoxy-4-((2-(N-methylcyclopropylsulfonamido)phenyl)amino)nicotinamide] |  | > 10 |  | > 10 | 0.000424 |
| CCONC(=O)c1cnc(Nc2ccc(C)nn2)cc1Nc1cc(F)c(C2CC2)cc1N(C)S(C)(=O)=O [Example 176, 4-((4-cyclopropyl-5-fluoro-2-(N-methylmethanesulfonamido)phenyl)amino)-N-ethoxy-6-((6-methylpyridazin-3-yl)amino)nicotinamide] | 0.00232 | > 10 | > 10 |  |  |
| CCONC(=O)c1cnc(Nc2cc(C)nc(C)n2)cc1Nc1ccc(C#N)cc1N(C)S(C)(=O)=O [Example 177] | 0.0016 | > 10 | > 10 |  |  |
| CCONC(=O)c1cnc(Nc2cc(C)nc(C)n2)cc1Nc1ccc(CC)cc1N(C)S(C)(=O)=O [Example 180] |  | > 10 | > 10 |  | 0.00113 |
| C#Cc1cc(N(C)S(C)(=O)=O)c(Nc2cc(Nc3cc(C)nc(C)n3)ncc2C(=O)NOCC)cc1F [Example 182] | 0.00159 | > 10 | > 10 |  |  |

More lines, main results first:

| IC50 ([3]; U2OS) [µM] | SMILES | IC50 [1] [µM] | IC50 [2, 4] [µM] | IC50 ([2]; KHYG-1, 72 h) [µM] | IC50 [3] [µM] |
| --- | --- | --- | --- | --- | --- |
| 0.00151 | CCONC(=O)c1cnc(Nc2cccnn2)cc1Nc1ccc(C2CC2)cc1N(C)S(C)(=O)=O [Example 153, 4-((4-cyclopropyl-2-(N-methylmethanesulfonamido)phenyl)amino)-N-ethoxy-6-(pyridazin-3-ylamino)nicotinamide] | > 10 | > 10 |  |  |
| 0.001 | CCONC(=O)c1cnc(Nc2ncc(C)s2)cc1Nc1ccc(C2CC2)cc1N(C)S(C)(=O)=O [Example 156, 4-((4-cyclopropyl-2-(N-methylmethanesulfonamido)phenyl)amino)-N-ethoxy-6-((5-methylthiazol-2-yl)amino)nicotinamide] | > 10 | > 10 |  |  |
| 0.00149 | CCONC(=O)c1cnc(Nc2nc(C)cs2)cc1Nc1ccc(C2CC2)cc1N(C)S(C)(=O)=O [Example 157, 4-((4-cyclopropyl-2-(N-methylmethanesulfonamido)phenyl)amino)-N-ethoxy-6-((4-methylthiazol-2-yl)amino)nicotinamide] | > 10 | > 10 |  |  |
| 0.000907 | CCONC(=O)c1cnc(Nc2ccc(C)nn2)cc1Nc1ccc(C2CC2)cc1N(C)S(C)(=O)=O [Example 159, 4-((4-cyclopropyl-2-(N-methylmethanesulfonamido)phenyl)amino)-N-ethoxy-6-((6-methylpyridazin-3-yl)amino)nicotinamide] | > 10 | > 10 |  |  |
| 0.000442 | CCONC(=O)c1cnc(Nc2ccn(C)n2)cc1Nc1ccc(C2CC2)cc1N(C)S(C)(=O)=O [Example 160, 4-((4-cyclopropyl-2-(N-methylmethanesulfonamido)phenyl)amino)-N-ethoxy-6-((1-methyl-1H-pyrazol-3-yl)amino)nicotinamide] | > 10 | > 10 |  |  |
| 0.000438 | C#Cc1ccc(Nc2cc(Nc3ccccn3)ncc2C(=O)NOCC)c(N(C)S(C)(=O)=O)c1 [Example 162, N-ethoxy-4-((4-ethynyl-2-(N-methylmethanesulfonamido)phenyl)amino)-6-(pyridin-2-ylamino)nicotinamide] | > 10 | > 10 |  |  |
| 0.00151 | CCONC(=O)c1cnc(NC(=O)C2CC2)cc1Nc1cccc(-c2ncn(C)n2)c1OC [Example 166, 6-(cyclopropylcarboxamido)-N-ethoxy-4-((2-methoxy-3-(1-methyl-1H-1,2,4-triazol-3-yl)phenyl)amino)nicotinamide] | > 10 | > 10 |  |  |
| 0.00151 | CCONC(=O)c1cnc(Nc2cnccn2)cc1Nc1cc(F)c(C2CC2)cc1N(C)S(C)(=O)=O [Example 167, 4-((4-cyclopropyl-5-fluoro-2-(N-methylmethanesulfonamido)phenyl)amino)-N-ethoxy-6-(pyrazin-2-ylamino)nicotinamide] | > 10 | > 10 |  |  |
| 0.0015 | CCONC(=O)c1cnc(Nc2nc(C)cs2)cc1Nc1cc(F)c(C2CC2)cc1N(C)S(C)(=O)=O [Example 170, 4-((4-cyclopropyl-5-fluoro-2-(N-methylmethanesulfonamido)phenyl)amino)-N-ethoxy-6-((4-methylthiazol-2-yl)amino)nicotinamide] | > 10 | > 10 |  |  |
| 0.000784 | CCONC(=O)c1cnc(Nc2cc(C)nc(C)n2)cc1Nc1ccc(OC)cc1N(C)S(=O)(=O)C1CC1 [Example 174, 6-((2,6-dimethylpyrimidin-4-yl)amino)-N-ethoxy-4-((4-methoxy-2-(N-methylcyclopropylsulfonamido)phenyl)amino)nicotinamide] | > 10 | > 10 |  |  |
| 0.000839 | CCONC(=O)c1cnc(Nc2cc(C)nc(C)n2)cc1Nc1ccc(C)cc1N(C)S(=O)(=O)C1CC1 [Example 175] | > 10 | > 10 |  |  |
| 0.00128 | CCONC(=O)c1cnc(Nc2cc(C)nc(C)n2)cc1Nc1ccc(OC(C)C)cc1N(C)S(C)(=O)=O [Example 178, 6-((2,6-dimethylpyrimidin-4-yl)amino)-N-ethoxy-4-((4-isopropoxy-2-(N-methylmethanesulfonamido)phenyl)amino)nicotinamide] | > 10 | > 10 |  |  |
| 0.00131 | CCONC(=O)c1cnc(Nc2ccnc(OC)n2)cc1Nc1ccc(C2CC2)cc1N(C)S(C)(=O)=O [Example 179, 4-((4-cyclopropyl-2-(N-methylmethanesulfonamido)phenyl)amino)-N-ethoxy-6-((2-methoxypyrimidin-4-yl)amino)nicotinamide] | > 10 | > 10 |  |  |

Reference: patent US20240101548A1, “HYDROXAMATE COMPOUND, PREPARATION METHOD THEREFOR AND APPLICATION THEREOF” (SHENZHEN CHIPSCREEN BIOSCIENCES CO., LTD., priority 2020, published 2024)
